Measured values from ChEMBL document CHEMBL2074254, “Substrate specificity of sinusoidal bile acid and organic anion uptake systems in rat and human liver” (Hepatology, 1997).

Each compound was assayed against T1, Hepatic sodium/bile acid cotransporter (Homo sapiens, UniProt Q14973) (assay: TP_TRANSPORTER: uptake in Xenopus laevis oocytes). Conditions: oocyte.
T1 sequence (Q14973 whole entry): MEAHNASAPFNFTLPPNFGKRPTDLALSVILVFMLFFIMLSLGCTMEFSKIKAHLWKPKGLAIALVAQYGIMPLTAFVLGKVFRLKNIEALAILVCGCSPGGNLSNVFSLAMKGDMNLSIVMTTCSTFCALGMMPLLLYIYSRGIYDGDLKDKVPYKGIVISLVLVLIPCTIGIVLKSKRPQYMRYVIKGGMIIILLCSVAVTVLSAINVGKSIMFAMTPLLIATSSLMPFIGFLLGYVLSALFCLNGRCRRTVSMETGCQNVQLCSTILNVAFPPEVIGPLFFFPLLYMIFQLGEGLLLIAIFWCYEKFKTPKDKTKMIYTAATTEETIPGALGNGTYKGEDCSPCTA
Assay type: functional, cell-based

Structure (SMILES) | Activity
C[C@H](CCC(=O)NCC(=O)O)[C@H]1CC[C@H]2[C@@H]3[C@H](O)C[C@@H]4C[C@H](O)CC[C@]4(C)[C@H]3C[C@H](O)[C@]12C [GLYCOCHOLIC ACID] | substrate [+]
O=C1OC(c2ccc(O)c(S(=O)(=O)[O-])c2)(c2ccc(O)c(S(=O)(=O)[O-])c2)c2c(Br)c(Br)c(Br)c(Br)c21.[Na+].[Na+] [SULFOBROMOPHTHALEIN SODIUM] | substrate [+]
C[C@]12CC[C@@H]3c4ccc(OS(=O)(=O)O)cc4CC[C@H]3[C@@H]1CCC2=O [ESTRONE SULFURIC ACID] | substrate [+]

Other lines, results leading:

Activity | Structure (SMILES)
substrate [+] | C[C@H](CCC(=O)NCCS(=O)(=O)O)[C@H]1CC[C@H]2[C@@H]3[C@H](O)C[C@@H]4C[C@H](O)CC[C@]4(C)[C@H]3CC[C@]12C [TAUROCHENODEOXYCHOLATE]
substrate [+] | C[C@H](CCC(=O)NCCS(=O)(=O)O)[C@H]1CC[C@H]2[C@@H]3[C@@H](O)C[C@@H]4C[C@H](O)CC[C@]4(C)[C@H]3CC[C@]12C [TAURURSODIOL]
